{"source": "patent US20030113409A1", "about": "“Tellurium containing nutrient formulation and process for enhancing the cumulative weight gain or feed efficacy in poultry” (priority 2001, published 2003)", "key": {"[1]": {"experiment": "Growth performance of three day old chicks fed diet with AS101 (body weight, feed intake, feed efficacy, liver weight, survival, histology)", "conditions": "for increase in BW over Group 1: versus standard diet without selenium", "procedure": "Each chick included in the study weighed exactly 80 g. via accurate electronic scale and each chick was marked. There were five different treatment groups, each group comprising ten chicks in four repetitions. The five groups of animals were tested as follows: Group 1 received a standard feeding diet without selenium; Group 2 received the standard feeding diet supplemented with 500 mg/metric ton of selenium; Group 3 received the same diet as Group 2 with the addition of AS101 at a concentration of 500 mg/metric ton; Group 4 received the same diet as Group 2 with the addition of AS101 at a concentration of 2,500 mg/metric ton; Group 5 received the same diet as Group 2 with the addition of AS101 at a concentration of 12,500 mg/ton. All the experiments were randomized and open. The results of each group represent the mean of 40 chicks. For growth period days 3-24, the performance of groups of three day old birds, fed AS101 concentrations of 500 mg/metric ton, 2,500 mg/metric ton or 12,500 mg/metric ton were compared to groups of control birds fed either a standard feeding diet without selenium or a standard feeding diet with an addition of […] selenium. Body weight (BW) was measured after 24 days. At the end of 24 days, the animals were examined for gross signs of toxicity. A gross visual examination was carried out. The liver of each chick was extracted and weighed."}, "[2]": {"conditions": "Phase I and II, cancer patients; cited from earlier work"}, "[3]": {"conditions": "intraruminal pellets selenium, dairy heifers; cited from earlier work"}, "[4]": {"conditions": "Treatment 3: AS101 500 mg/metric ton"}, "[5]": {"conditions": "Treatment 4: AS101 2,500 mg/metric ton"}, "[6]": {"conditions": "Treatment 4: AS101 2,500 mg/metric ton, control = Treatment 2"}, "[7]": {"conditions": "Treatment 5: AS101 12,500 mg/ton"}, "[8]": {"conditions": "Treatment 5: AS101 12,500 mg/ton, control = Treatment 2"}, "[9]": {"conditions": "Treatment 2: selenium supplemented diet, no AS101"}}}
{"compound": "Cl[TeH]1(Cl)(Cl)OCCO1", "note": "[AS101, ammonium trichloro(dioxyethylene-O,O′)tellurate]", "values": [{"measurement": "change in BW (significance)", "setting": "[1]; 12.5 g/ton AS101", "value": "significant increase in BW"}, {"measurement": "BW increase", "setting": "[1]; AS101 500 mg/ton added to mixture that includes selenium", "value": 1.7, "unit": "%"}, {"measurement": "BW increase", "setting": "[1]; AS101 2,500 mg/ton added to mixture that includes selenium", "value": 2.3, "unit": "%"}, {"measurement": "BW increase", "setting": "[1]; AS101 12,500 mg/ton added to mixture that includes selenium", "value": 5, "unit": "%"}, {"measurement": "increase in BW over Group 1", "setting": "[1]; Group 5, highest level of tellurium", "value": 5.4, "unit": "%"}, {"measurement": "FEED EFFICACY", "setting": "[1]; [4]", "value": 0.731, "unit": "g/g"}, {"measurement": "FEED INTAKE", "setting": "[1]; [4]", "value": 1382, "unit": "g"}, {"measurement": "FE, % OF CONTROL", "setting": "[1]; Treatment 3: AS101 500 mg/metric ton, control = Treatment 2", "value": 103.5, "unit": "%"}, {"measurement": "BW, % OF CONTROL", "setting": "[1]; Treatment 3: AS101 500 mg/metric ton, control = Treatment 2 (selenium diet)", "value": 101.7, "unit": "%"}, {"measurement": "BW-24D", "setting": "[1]; Treatment 3: standard diet + selenium 500 mg/metric ton + AS101 500 mg/metric ton, mean of 40 chicks", "value": 1090, "unit": "g"}, {"measurement": "FEED EFFICACY", "setting": "[1]; [5]", "value": 0.74, "unit": "g/g"}, {"measurement": "FEED INTAKE", "setting": "[1]; [5]", "value": 1375, "unit": "g"}, {"measurement": "BW, % OF CONTROL", "setting": "[1]; [6]", "value": 102.3, "unit": "%"}, {"measurement": "FE, % OF CONTROL", "setting": "[1]; [6]", "value": 104.8, "unit": "%"}, {"measurement": "BW-24D", "setting": "[1]; Treatment 4: standard diet + selenium + AS101 2,500 mg/metric ton, mean of 40 chicks", "value": 1097, "unit": "g"}, {"measurement": "FEED EFFICACY", "setting": "[1]; [7]", "value": 0.738, "unit": "g/g"}, {"measurement": "FEED INTAKE", "setting": "[1]; [7]", "value": 1417, "unit": "g"}, {"measurement": "BW, % OF CONTROL", "setting": "[1]; [8]", "value": 105, "unit": "%"}, {"measurement": "FE, % OF CONTROL", "setting": "[1]; [8]", "value": 104.5, "unit": "%"}, {"measurement": "BW-24D", "setting": "[1]; Treatment 5: standard diet + selenium + AS101 12,500 mg/ton, mean of 40 chicks", "value": 1126, "unit": "g"}, {"measurement": "survival rate", "setting": "[1]; all groups, no mortalities", "value": 100, "unit": "%"}, {"measurement": "increase of growth rate of young chicks", "setting": "[1]; diet with at least 0.5 gm selenium per metric ton + 12.5 gm tellurium compound per metric ton, by day 21", "value": "up to 5%"}, {"measurement": "food intake altered by feeding with AS101", "setting": "[1]; in vivo", "value": "not altered"}, {"measurement": "histological studies", "setting": "[1]; in vivo", "value": "No pathological changes were observed"}, {"measurement": "toxicity in clinical trials", "setting": "[2]", "value": "non-toxic"}]}
{"compound": "[Se]", "note": "[selenium, reference compound]", "values": [{"measurement": "increase in BW over Group 1", "setting": "[1]; Group 2, addition of 300 mg/ton of selenium", "value": 0.4, "unit": "%"}, {"measurement": "FEED EFFICACY", "setting": "[1]; [9]", "value": 0.706, "unit": "g/g"}, {"measurement": "FEED INTAKE", "setting": "[1]; [9]", "value": 1405, "unit": "g"}, {"measurement": "LIVER, % OF BW", "setting": "[1]; [9]", "value": 2.32, "unit": "%"}, {"measurement": "BW-24D", "setting": "[1]; Treatment 2: standard diet supplemented with 500 mg/metric ton of selenium, no AS101", "value": 1072, "unit": "g"}, {"measurement": "weight gains over control", "setting": "[3]", "value": "0.11 to 0.12", "unit": "kg/day"}]}
